According to US9315546B2, “Growth hormone secretatogue receptor antagonists and uses thereof” (The Administrators of the Tulane Educational Fund, priority 2010, dated 2016):
Values joined by “and” are separate entries in the source; they are usually repeats but may differ in a detail not shown here. Equal entries are not always repeated. Where no end group is shown, it is not given here. [ ]: non-standard residue; d: D form. d2Nal = N[C@H](Cc1ccc2ccccc2c1)C(=O)O; Orn = NCCC[C@H](N)C(=O)O; Aib = CC(C)(N)C(=O)O; GABA = NCCCC(=O)O

Molecular target: Ghrelin/GHRP/GHS Receptor (Rattus norvegicus, UniProt O08725)
Sequence (O08725 whole entry): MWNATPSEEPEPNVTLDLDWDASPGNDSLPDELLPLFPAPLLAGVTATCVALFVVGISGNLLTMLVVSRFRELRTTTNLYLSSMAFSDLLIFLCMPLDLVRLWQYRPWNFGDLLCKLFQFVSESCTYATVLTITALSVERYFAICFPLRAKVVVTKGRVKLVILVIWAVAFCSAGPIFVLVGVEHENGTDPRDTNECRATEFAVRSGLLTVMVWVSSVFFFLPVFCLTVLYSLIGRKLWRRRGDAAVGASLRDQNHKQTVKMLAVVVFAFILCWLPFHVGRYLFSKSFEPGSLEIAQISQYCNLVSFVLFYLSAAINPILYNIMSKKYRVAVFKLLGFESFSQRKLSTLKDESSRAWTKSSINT
Assay: In vivo GH release in rat after i.v. peptide (serum GH by RIA)
Conditions: for Stimulated GH release (P + S) / Unstimulated GH release (−S): Non-Pentobarbital Rats; for Stimulated GH release (P + S): peptide 30 μg i.v. + stimulator 10 μg
Procedure: For the in vivo assay of GH Release in rat, immature female Sprague Dawley rats were obtained from Charles River from Wilmington, Mass. After arrival they were housed at 25° C. with a 14:10 h light:dark cycle. Water and Purina rat chow were available at libitum. Pups were weaned at 21 days of age.
Immature twenty six day old female Sprague Dawley rats, 3-6 rats per treatment dose, were pretreated with pentobarbital 20 minutes before iv injection of vehicle/peptide or peptide plus stimulator. Injection was made as a 0.1 ml solution. For the non-pentobarbital treated rat assay, peptides were administered iv into the tail vein of conscious rats. All animals were sacrificed by guillotine after iv peptide or vehicle. Trunk blood was collected at +10-15 minutes […], allowed to clot, centrifuged and serum stored until assayed for GH levels by RIA. The GH RIA reagents were distributed by the NIH. Control data was collected from rats treated with only the corresponding vehicle in the absence of peptide or stimulator. Control stimulated data was collected from rats treated with stimulator alone in the absence of any peptide.

[1] = peptide antagonist 30 μg i.v. + stimulator 0.3 μg
[2] = peptide antagonist 3 μg i.v. + stimulator 1 μg
[3] = peptide antagonist 10 μg i.v. + stimulator 1 μg
[4] = peptide antagonist 30 μg i.v. + stimulator 1 μg
[5] = peptide antagonist 100 μg i.v. + stimulator 1 μg
[6] = Table 5, peptide alone 1 μg i.v.
[7] = Table 5, peptide alone 3 μg i.v.
[8] = Table 3, peptide alone 1 μg i.v.
[9] = Table 3, peptide alone 3 μg i.v.
[10] = Table 3, peptide alone 10 μg i.v.
[11] = Table 3, peptide alone 30 μg i.v.
[12] = Table 3, peptide alone 100 μg i.v.
[13] = Table 5, peptide alone 10 μg i.v.

AH[dW][dK]W[dF]K-NH2 [5-Ala-His-DTrp-DLys-Trp-DPhe-Lys-NH2]
Stimulated GH release [1]: 1487 ± 397 ng/mL

Alaψ[CH2NH]-DβNal-Ala-Trp-DPhe-Lys-NH2 [6-Alaψ[CH2NH]-DβNal-Ala-Trp-DPhe-Lys-NH2]
Stimulated GH release [2]: 2771 ± 157 ng/mL | Stimulated GH release [3]: 2341 ± 416 ng/mL | Stimulated GH release [4]: 1948 ± 450 ng/mL | Stimulated GH release [5]: 1639 ± 221 ng/mL

Alaψ[CH2NH]His-DTrp-Ala-Trp-DPhe-Lys-NH2
Unstimulated Basal GH release [6]: 127 ± 32 ng/mL | Unstimulated Basal GH release [7]: 147 ± 37 ng/mL

DAla-DcyclohexylAla-Ala-Phe-DPhe-Nle-NH2
Unstimulated Basal GH release [8]: 435 ± 152 ng/mL | Unstimulated Basal GH release [9]: 195 ± 34 ng/mL | Unstimulated Basal GH release [10]: 250 ± 41 ng/mL | Unstimulated Basal GH release [11]: 393 ± 51 ng/mL | Unstimulated Basal GH release [12]: 697 ± 75 ng/mL

DAla-DβNal-Ala-Ala-DAla-Lys-NH2 [6-DAla-DβNal-Ala-Ala-DAla-Lys-NH2]
Unstimulated Basal GH release [9]: 235 ± 43 ng/mL | Unstimulated Basal GH release [10]: 178 ± 33 ng/mL | Unstimulated Basal GH release [11]: 172 ± 15 ng/mL | Unstimulated Basal GH release [12]: 185 ± 39 ng/mL

DThr-DαNal-DTrp-DPro-Arg-NH2 [5-DThr-DαNal-DTrp-DPro-Arg-NH2]
Unstimulated Basal GH release [6]: 60 ± 5 ng/mL | Unstimulated Basal GH release [7]: 130 ± 24 ng/mL | Unstimulated Basal GH release [13]: 134 ± 31 ng/mL

DcyclohexylAla-Ala-Phe-DTrp-Lys-NH2 [3-DcyclohexylAla-Ala-Phe-DTrp-Lys-NH2]
Unstimulated Basal GH release [8]: 199 ± 63 ng/mL | Unstimulated Basal GH release [9]: 266 ± 68 ng/mL | Unstimulated Basal GH release [10]: 199 ± 23 ng/mL | Unstimulated Basal GH release [11]: 346 ± 82 ng/mL | Unstimulated Basal GH release [12]: 350 ± 61 ng/mL

DcyclohexylAla-Ala-Trp-DPhe-NH2 [5-DcyclohexylAla-Ala-Trp-DPhe-NH2]
Unstimulated Basal GH release [9]: 181 ± 28 ng/mL | Unstimulated Basal GH release [10]: 237 ± 18 ng/mL | Unstimulated Basal GH release [11]: 354 ± 81 ng/mL | Unstimulated Basal GH release [12]: 771 ± 76 ng/mL

Glyψ[CH2NH]-DβNal-Ala-Trp-DPhe-Lys-NH2 [1-Glyψ[CH2NH]-DβNal-Ala-Trp-DPhe-Lys-NH2]
Stimulated GH release (peptide antagonist 10 μg i.v. + stimulator 0.3 μg): 1112 ± 200 ng/mL | Stimulated GH release [3]: 2307 ± 176 ng/mL and 1842 ± 454 ng/mL | Stimulated GH release [1]: 578 ± 82 ng/mL | Stimulated GH release [4]: 890 ± 236 ng/mL and 1135 ± 140 ng/mL

Glyψ[CH2NH]-DβNal-DLys-Trp-DPhe-Lys-NH2
Stimulated GH release (peptide antagonist 1 μg i.v. + stimulator 1 μg): 2305 ± 320 ng/mL | Stimulated GH release [2]: 1990 ± 196 ng/mL | Stimulated GH release [3]: 1550 ± 284 ng/mL | Stimulated GH release [4]: 946 ± 133 ng/mL | Stimulated GH release [5]: 462 ± 122 ng/mL

HW[dA][dW]FK-NH2 [11-His-Trp-DAla-DTrp-Phe-LysNH2]
Unstimulated Basal GH release [8]: 204 ± 44 ng/mL | Unstimulated Basal GH release [9]: 127 ± 44 ng/mL | Unstimulated Basal GH release [10]: 83 ± 5 ng/mL

H[dW]FW[dF]K-NH2 [8-His-DTrp-Phe-Trp-DPhe-Lys-NH2]
Unstimulated Basal GH release [8]: 67 ± 14 ng/mL | Unstimulated Basal GH release [9]: 141 ± 53 ng/mL | Unstimulated Basal GH release [10]: 197 ± 70 ng/mL | Unstimulated Basal GH release [11]: 509 ± 48 ng/mL

K[dH][dW]F-NH2 [8-Lys-DHis-DTrp-Phe-NH2]
Unstimulated Basal GH release [13]: 121 ± 24 ng/mL

Tyr-DAla-Sar-NMePhe-NH2 [2-Tyr-DAla-Sar-NMePhe-NH2]
Stimulated GH release (P + S): 24 ± 6 ng/mL | Unstimulated GH release (−S) (peptide alone 30 μg i.v.): 18 ± 4 ng/mL

Y[dA]F[Aib]-NH2 [1-Tyr-DAla-Phe-Aib-NH2]
Stimulated GH release (P + S): 23 ± 5 ng/mL | Unstimulated GH release (−S) (peptide alone 30 μg i.v.): 18 ± 1 ng/mL

[GABA][dW][dW][Orn]-NH2 [9-γAbu-DTrp-DTrp-Orn-NH2]
Unstimulated Basal GH release [6]: 82 ± 28 ng/mL | Unstimulated Basal GH release [13]: 90 ± 5 ng/mL | Unstimulated Basal GH release (Table 5, peptide alone 30 μg i.v.): 113 ± 32 ng/mL

[d2Nal]AW[dF]A-NH2 [1-DβNal-Ala-Trp-DPhe-Ala-NH2]
Unstimulated Basal GH release [8]: 623 ± 60 ng/mL | Unstimulated Basal GH release [9]: 694 ± 70 ng/mL | Unstimulated Basal GH release [10]: 654 ± 58 ng/mL | Unstimulated Basal GH release [11]: 713 ± 71 ng/mL
